Source: patent publication US7935525B2, “Inhibition of ATF2 activity to treat cancer” (Mount Sinai School of Medicine, priority 2001, dated 2011)
No end group written: not given here.

How the values were obtained:
LU1205 cells = test: Apoptosis by FACS (hypodiploid fraction); assay type: cell-based, human; set-up: Adriamycin induced programmed cell death, increase compared with control: dose or concentration left out as unconfirmed
Description: (§1) Treatment and apoptosis studies of stably transfected melanoma cells. Cells were exposed to UVC at 75 J/m^2 as previously described (Ronai, Z., et al., Oncogene 1998; 16:523-531). SB203580 (1-10 μM) (Calbiochem®, San Diego, Calif.), NCS (50-100 ng/ml) and mitomycin C (MMC) (0.2-1 μM) were used to treat melanoma cells. Flow cytometric analysis was performed on a FACSCalibur™ flow cytometer (Becton Dickinson) using CellQuest™ software as described previously (Nicoletti et al., J. Immunol. Methods 1991; 139:271-279). Cells were pelleted and resuspended in 0.5 ml of hypotonic buffer with 0.1% Triton X-100 containing PI (40 μg/ml) and DNase-free RNase A (1 mg/ml). Cells were incubated at 37° C. for 30 min and analyzed on a FACSCalibur™ flow cytometer (Becton Dickinson). The percentage of cells to the left of the diploid G0/1 peak, characteristic of hypodiploid cells that have lost DNA, was defined as the percentage of apoptotic cells. Analysis was performed with light scatter gating. Surface expression of Fas was determined using anti-Fas-PE antibody (PharMingen® CA) and flow cytometric analysis. Cell surface expression is measured as mean fluorescence intensity (MFI).

LU1205 tumor cells = test: Growth of transplanted LU1205 tumors in mice; assay type: in vivo; conditions: single agent: inhibitor injected into tumor, or peptide expressed in tumor cells
Description: (§2) Tumor growth and metastasis evaluation in vivo. Cell lines established in culture to constitutively or inducibly express the peptide were injected into mice subcutaneously (S.C.). LU1205, FEMX and SW-1 cells that expressed control or peptide II were trypsinized, resuspended in PBS and injected SC (1×10^6) into 6-7 week old mice in the lower flank. When the tumor reached the size of about 50 mm^3, 5 μM of SB203580 was injected into four areas of the LU1205 tumors every 4 days during a 2-week period. For FEMX tumors UCN-01 (2.5 mg/kg) was fed by gavage twice a day, three times per week for a total of 2 weeks. Tumor growth was monitored every two days. SW-1 cells expressing peptide II under tet-inducible vector were injected SC (1×10^6). When tumors reached a size of about 50 mm^3, the mice received doxycycline in their drinking water ([…]) for a total of 2-4 weeks. At the end of the experiment, the tumors were excised and weighed. The lungs and other organs were subjected to histopathological examination to detect metastatic lesions.

[1] = tested on: human melanocytes (FOM71); test: Apoptosis by FACS (hypodiploid fraction); assay type: cell-based; conditions: melanocytes; SB203580 or NCS (100 ng/ml); 36 h
Description: as §1

FEMX tumor cells = test: Growth of transplanted FEMX tumors in mice; assay type: in vivo; conditions: single agent: UCN-01 by gavage, or peptide expressed in tumor cells
Description: as §2

ATF2 [2] = test: ATF2 phosphorylation in peptide-expressing melanoma cells; assay type: cell-based, human; conditions: UV-treated; vs control vector cells
FEMX melanoma cell line = test: Colony forming efficiency (CFE) resistance assay; assay type: cell-based, human; conditions: peptide-expressing FEMX vs neo control; UV-treatment; 14 days
Description: (§3) Radiation resistance. Cells (500 or 1500 per well) were plated in triplicates on 6 well plates, 24 h before treatment (Ronai et al., Oncogene 1998; 16:523-531). In all cases, plating efficiency was pre-determined so that number of cell plated was normalized respectively. Colonies (greater than 50 cells per clone) were stained with crystal violet solution (3% in 10% methanol and PBS), 14 days After treatment. % of CFE in each treatment group was calculated based on total CFE formed in the respective controls (100%).

[3] = tested on: LU1205 melanoma cell line; test: Colony forming efficiency (CFE) resistance assay; assay type: cell-based, human
Description: as §3

Fas promoter = Fas promoter activity (-460 Fas promoter region); assay type: cell-based, human; conditions: peptide-expressing LU1205
[4] = tested on: ATF2 transcriptional output; test: Jun-2-Luc activities in peptide IV-expressing cells; assay type: cell-based
[5] = tested on: 293T human kidney embryonic cells; test: Apoptosis by FACS (hypodiploid fraction); assay type: cell-based; conditions: peptide-expressing 293T; normal growth conditions
Description: [Worded in the source for another cell line; this cell line is reported under the same test.] as §1

[6] = tested on: WM1552 early-phase melanoma cell line; test: Apoptosis by FACS (hypodiploid fraction); assay type: cell-based, human; conditions: peptide-expressing WM1552; UV-C 75 J/m2; 36 h
Description: as §1

[7] = tested on: MCF7 breast cancer-derived cell line; test: Apoptosis by FACS (hypodiploid fraction); assay type: cell-based, human; conditions: peptide-expressing MCF7; UV; 36 h
Description: [Worded in the source for another cell line; this cell line is reported under the same test.] as §1

[8] = tested on: Adriamycin-resistant MCF7 cell line (MCF7-Adr); test: Apoptosis by FACS (hypodiploid fraction); assay type: cell-based, human; conditions: peptide-expressing MCF7-Adr; neo controls 3-fold; 36 h
Description: [Worded in the source for another cell line; this cell line is reported under the same test.] as §1

FEMX cells = test: Apoptosis by FACS (hypodiploid fraction); assay type: cell-based, human; conditions: peptide-expressing FEMX; UV-C 75 J/m2; 36 h; neo control 13%
Description: as §1

Fas = test: Cell surface expression of Fas by FACS; assay type: cell-based, human; conditions: peptide-expressing LU1205; control 122
Description: as §1

JNK = test: GST binding assay; conditions: GST pull-down; greater binding in extracts of UV-treated cells
Description: (§4) Electrophoretic mobility shift assays were performed as described. (Ivanov and Ronada, J Biol Chem 1999; 274(20):14079-89). GST binding assays were performed with GST-peptide II as described (Adler et al., Proc Natl Acad Sci USA 1995; 92 10585-9). SW1 cells expressing control vector or peptide II were subjected to FACS analysis following their incubation with antibodies to the cell surface receptor of FAS as described above.

ATF2 [9] = test: GST binding assay; conditions: GST pull-down
Description: as §4

`COc1cccc2c1C(=O)c1c(O)c3c(c(O)c1C2=O)C[C@@](O)(C(=O)CO)C[C@@H]3O[C@H]1C[C@H](N)[C@H](O)[C@H](C)O1` [Adriamycin®, reference compound] was tested, and the “Adriamycin induced programmed cell death, increase compared with control” value (LU1205 cells; LU1205, ADR alone) was 2 fold.

With `C[S+]([O-])c1ccc(-c2nc(-c3ccncc3)c(-c3ccc(F)cc3)[nH]2)cc1` (centres unmarked) [SB203580, reference compound] the tumor cell growth (LU1205 tumor cells) was “almost no effect” and the “changes in degree of apoptosis” value [1] was “neither NCS nor SB203580 elicited any significant changes”.

`CN[C@@H]1C[C@H]2O[C@@](C)([C@@H]1OC)n1c3ccccc3c3c4c(c5c6ccccc6n2c5c31)C(=O)N[C@H]4O` [UCN-01, 7-hydroxystaurosporine, reference compound] was tested, and the tumor cell growth (FEMX tumor cells) was “little effect, if any”.

In the case of neocarzinostatin [NCS], the “changes in degree of apoptosis” value [1] is reported as “neither NCS nor SB203580 elicited any significant changes”.

“peptide IV: ATF2 peptide of amino acid residues 150-200, expressed from pcDNA3 with HA-penetratin tag (EVPLAQTAQPTSAIVRPASLQVPNVLLTSSDSSVIIQQAVPSPTSSTVITQ; not fully specified; also: HA-penetratin tag, position not given here; UniProt P15336 150-200, looked up, fragment)” was tested, and the “increase in degree of apoptosis over control neo cells given Adriamycin and verapamil” value (LU1205 cells; peptide-expressing LU1205, Adriamycin + verapamil) was 70%, the “apoptotic fraction of UV-treated cells” value (LU1205 cells; peptide-expressing LU1205, UV-C 75 J/m2, 36 h, neo control 15%) was 10% and the “increase in the degree of cell death” value (LU1205 cells; peptide-expressing LU1205, higher doses (10 μM) of SB203580, 36 h) was 2 fold. For the same molecule, the “increase in cell death” value (LU1205 cells; peptide-expressing LU1205, low doses of SB203580, 36 h) was “did not alter the degree of cell death”, the “ATF2 phosphorylation after UV-treatment” value (ATF2 [2]) was “higher degree of increase in ATF2 phosphorylation” and the “increase in the % of CFE” value (FEMX melanoma cell line) was ≤ 2.5 fold. For the same molecule, the “increase in the resistance to NCS (CFE)” value ([3]; peptide-expressing LU1205, low dose of NCS) was ~2 fold, the “increase in the % of CFE” value ([3]; peptide-expressing LU1205 vs neo control, UV-treatment, 14 days) was ≤ 2.5 fold and the “Fas promoter mediated transcription” value (Fas promoter) was “decrease in Fas promoter mediated transcription”. For the same molecule, the “transcriptional output measured via Jun-2-Luc activities” value [4] was “elevated transcriptional output”, the “increase in the degree of basal apoptosis” value [5] was 15 fold and the “sensitization to UV-induced apoptosis” value [6] was “did not cause higher level of apoptosis”. For the same molecule, the “decrease in the degree of apoptosis after UV-treatment compared with MCF7 neo control cells” value [7] was 5 fold, the “increase in apoptosis following UV-treatment” value [8] was “greater than 4 fold” and the “apoptotic fraction of UV-treated cells” value (FEMX cells) was 8%. The “cell surface expression of Fas, mean fluorescence intensity” value (Fas) was “did not cause major changes”.

B1: amino acid residues 1-115: larger region of the amino-terminal ATF2 domain (amino acid residues 1-115) (protein, UniProt P15336 1-115, looked up, fragment)
chain: MKFKLHVNSARQYKDLWNMSDDKPFLCTAPGCGQRFTNEDHLAVHKHKHEMTLKFGPARNDSVIVADQTPTPTRFLKNCEEVGLFNELASPFENEFKKASEDDIKKMPLDLSPLA
With B1 the “association with JNK” value (JNK) was “equivalent association” and the “association with ATF2” value (ATF2 [9]) was “weaker association”.
